pEC50: −log10 of the molar value.
system: primary human endothelial cells expressing luciferase under the control of the KLF2 promoter; assay: KLF2 Induction Cell Based Bioassay (luciferase reporter); conditions: Bioactivity of stereoisomers: S isomer
Excerpt: In endothelial cell culture media, a stock of the highest working concentration was made at no more than 1% DMSO vehicle. The working stock was then serially diluted 1:2 to make an 11-point concentration response curve. Included in the 96-well plate were 2 reference compounds with known potencies. A DMSO column was included in the 96-well plate at the highest percent vehicle of the working stocks. The 96-well cell culture plate of primary human endothelial cells expressing luciferase under the control of the KLF2 promoter was dosed with 200 μL per well of the dilution series as well as the DMSO control column. The assay plate was incubated at 37° C. for 24 hours. The supernatant was collected at 24 hours.
20 μL of the supernatant was then placed in a 384-well plate with optical duplicates. The corners of the plate received 20 μL of the Gaussia Luciferase Enzyme positive control, as well as 20 μL of the 50 μM Coelenterizine substrate. The plate read is then calibrated using the control, and read using a Molecular Devices SpectraMax iD5, providing luminescence in relative light units (RLU). The plate reader injected 20 μL of the 50 μM Coelenterizine substrate immediately before taking the RLU measurement for each well.
The sample signals were then normalized to the average signal of the DMSO column, as well as to the maximum signal of one of the reference compounds, as shown in the equations below: […]
The EC50 of each compound is then defined as when the concentration response curve passes 0.5.

Compound	Bioactivity Bucket, S
COCCN1C(=O)c2oc3cc(C(=O)NC4(C)COC4)ccc3c2OC[C@@]1(C)C(=O)NCc1c(F)cccc1OC [Example 135]	inactive
COCCOCCn1cc(CCN2C(=O)c3oc4ccccc4c3OC[C@@]2(C)C(=O)NCc2ccccc2OC)nn1 [Example 136]	inactive
C#CCCN1C(=O)c2oc3ccccc3c2OC[C@@]1(C)C(=O)NCc1ccccc1OC [Example 138]	inactive

same assay, conditions: Homo sapiens, Endothelial cell, 24 h, KLF2 promoter luciferase, 24 hours, 11-point concentration response; read-out: Activity Range (EC50)

pEC50	Compound
6.30 to 7.29	COc1cccc(F)c1CNC(=O)C1(C)COc2c(oc3ccc(F)cc23)C(=O)N1CC(=O)N(C)CCO (centres unmarked) [Example 111, 9-fluoro-N-(2-fluoro-6-methoxybenzyl)-4-(2-((2-hydroxyethyl)(methyl)amino)-2-oxoethyl)-3-methyl-5-oxo-2,3,4,5-tetrahydrobenzofuro[2,3-f][1,4]oxazepine-3-carboxamide]
6.30 to 7.29	COc1cccc(F)c1CNC(=O)C1(C)COc2c(oc3ccc(F)cc23)C(=O)N1CC(=O)N(C)C (centres unmarked) [Example 112, 4-(2-(dimethylamino)-2-oxoethyl)-9-fluoro-N-(2-fluoro-6-methoxybenzyl)-3-methyl-5-oxo-2,3,4,5-tetrahydrobenzofuro[2,3-f][1,4]oxazepine-3-carboxamide]
6.30 to 7.29	COc1ccccc1CNC(=O)C1(C)COc2c(oc3ccc(F)cc23)C(=O)N1CC(=O)C1CC1 (centres unmarked) [Example 113, 4-(2-cyclopropyl-2-oxoethyl)-9-fluoro-N-(2-methoxybenzyl)-3-methyl-5-oxo-2,3,4,5-tetrahydrobenzofuro[2,3-f][1,4]oxazepine-3-carboxamide]
6.30 to 7.29	[2H]C([2H])([2H])N(C(=O)CN1C(=O)c2oc3ccc(F)cc3c2OC[C@]1(C)C(=O)NCc1c(F)cccc1OC)C([2H])([2H])[2H] [Example 114, (R)-4-(2-(bis(methyl-d3)amino)-2-oxoethyl)-9-fluoro-N-(2-fluoro-6-methoxybenzyl)-3-methyl-5-oxo-2,3,4,5-tetrahydrobenzofuro[2,3-f][1,4]oxazepine-3-carboxamide]
6.30 to 7.29	COc1cccnc1CNC(=O)[C@@]1(C)COc2c(oc3ccc(F)cc23)C(=O)N1CC(=O)N1CC(F)C1 [Example 115]
6.30 to 7.29	COc1cccnc1CNC(=O)[C@@]1(C)COc2c(oc3ccc(F)cc23)C(=O)N1CC(=O)N1CC(F)(F)C1 [Example 116]
6.30 to 7.29	COc1cccc(F)c1CNC(=O)[C@@]1(C)COc2c(oc3ccc(F)cc23)C(=O)N1CC(=O)N1CC[C@H]1CO [Example 117]
6.30 to 7.29	COc1cccc(F)c1CNC(=O)[C@@]1(C)COc2c(oc3ccc(F)cc23)C(=O)N1Cc1nnn(CCO)n1 [Example 118]
6.30 to 7.29	COc1ccc(F)cc1CNC(=O)[C@@]1(C)COc2c(oc3ccc(F)cc23)C(=O)N1Cc1nnn(CCO)n1 [Example 119]
6.30 to 7.29	COc1cccnc1CNC(=O)[C@@]1(C)COc2c(oc3ccc(F)cc23)C(=O)N1Cc1cn(CCO)nn1 [Example 120, (R)-9-fluoro-4-((1-(2-hydroxyethyl)-1H-1,2,3-triazol-4-yl)methyl)-N-((3-methoxypyridin-2-yl)methyl)-3-methyl-5-oxo-2,3,4,5-tetrahydrobenzofuro[2,3-f][1,4]oxazepine-3-carboxamide]
6.30 to 7.29	COc1ccccc1CNC(=O)C1(C)COc2c(oc3cc(C(=O)NC4(C)COC4)cnc23)C(=O)N1CC(=O)N(C)C (centres unmarked) [Example 121, 4-(2-(dimethylamino)-2-oxoethyl)-N3-(2-methoxybenzyl)-3-methyl-N8-(3-methyloxetan-3-yl)-5-oxo-2,3,4,5-tetrahydropyrido[2′,3′:4,5]furo[2,3-f][1,4]oxazepine-3,8-dicarboxamide]
6.30 to 7.29	COCCN1C(=O)c2oc3cc(C(=O)NC4(C)COC4)cnc3c2OCC1(C)C(=O)NCc1ccccc1OC (centres unmarked) [Example 122]
6.30 to 7.29	COCCN1C(=O)c2oc3cc(C(=O)NC4(C)COC4)cnc3c2OCC1(C)C(=O)NCc1c(Cl)cccc1OC (centres unmarked) [Example 123]
6.30 to 7.29	COc1cccc(F)c1CNC(=O)C1(C)COc2c(oc3cc(-c4ncco4)cnc23)C(=O)N1CC(=O)N(C)C (centres unmarked) [Example 124, 4-(2-(dimethylamino)-2-oxoethyl)-N-(2-fluoro-6-methoxybenzyl)-3-methyl-8-(oxazol-2-yl)-5-oxo-2,3,4,5-tetrahydropyrido[2′,3′:4,5]furo[2,3-f][1,4]oxazepine-3-carboxamide]
≥ 7.30	COc1cccnc1CNC(=O)[C@@]1(C)COc2c(oc3cc(-c4ncco4)ccc23)C(=O)N1CC(=O)N(C)C [Example 125, (R)-4-(2-(dimethylamino)-2-oxoethyl)-N-((3-methoxypyridin-2-yl)methyl)-3-methyl-8-(oxazol-2-yl)-5-oxo-2,3,4,5-tetrahydrobenzofuro[2,3-f][1,4]oxazepine-3-carboxamide]
≥ 7.30	[2H]C([2H])([2H])N(C(=O)CN1C(=O)c2oc3cc(-c4nc(C(F)(F)F)cs4)ccc3c2OC[C@]1(C)C(=O)NCc1ncccc1OC)C([2H])([2H])[2H] [Example 126]
≥ 7.30	[2H]C([2H])([2H])N(C(=O)CN1C(=O)c2oc3cc(-c4ncco4)ccc3c2OC[C@]1(C)C(=O)NCc1ncccc1OC)C([2H])([2H])[2H] [Example 127]
≥ 7.30	COc1cccnc1CNC(=O)[C@@]1(C)COc2c(oc3cc(-c4nc(C(F)(F)F)cs4)ccc23)C(=O)N1CC(=O)N(C)C [Example 128]
≥ 7.30	COc1cccnc1CNC(=O)[C@@]1(C)COc2c(oc3cc(-c4nc(C#N)co4)ccc23)C(=O)N1CC(=O)N(C)C [Example 129, (R)-8-(4-cyanooxazol-2-yl)-4-(2-(dimethylamino)-2-oxoethyl)-N-((3-methoxypyridin-2-yl)methyl)-3-methyl-5-oxo-2,3,4,5-tetrahydrobenzofuro[2,3-f][1,4]oxazepine-3-carboxamide]
6.30 to 7.29	COc1cccc(F)c1CNC(=O)C1(C)COc2c(oc3ccc(C(F)(F)F)cc23)C(=O)N1CC(=O)N(C)C (centres unmarked) [Example 131, 4-(2-(dimethylamino)-2-oxoethyl)-N-(2-fluoro-6-methoxybenzyl)-3-methyl-5-oxo-9-(trifluoromethyl)-2,3,4,5-tetrahydrobenzofuro[2,3-f][1,4]oxazepine-3-carboxamide]
6.30 to 7.29	COc1cccc(F)c1CNC(=O)C1(C)COc2c(oc3ccc(C)cc23)C(=O)N1CC(=O)N(C)C (centres unmarked) [Example 133, 4-(2-(dimethylamino)-2-oxoethyl)-N-(2-fluoro-6-methoxybenzyl)-3,9-dimethyl-5-oxo-2,3,4,5-tetrahydrobenzofuro[2,3-f][1,4]oxazepine-3-carboxamide]
6.30 to 7.29	COc1cccc(F)c1CNC(=O)[C@@]1(C)COc2c(oc3cc(C(F)(F)F)cnc23)C(=O)N1CC(=O)N(C)C [Example 134, (R)-4-(2-(dimethylamino)-2-oxoethyl)-N-(2-fluoro-6-methoxybenzyl)-3-methyl-5-oxo-8-(trifluoromethyl)-2,3,4,5-tetrahydropyrido[2′,3′:4,5]furo[2,3-f][1,4]oxazepine-3-carboxamide]

same assay, conditions: Homo sapiens, Endothelial cell, Bioactivity of stereoisomers: R isomer; read-out: Bioactivity Bucket, R

pEC50	Compound
≥ 7.30	COc1cccnc1CNC(=O)[C@@]1(C)COc2c(oc3cc(-c4nc(C#N)co4)ccc23)C(=O)N1CC(=O)N(C)C [Example 129, (R)-8-(4-cyanooxazol-2-yl)-4-(2-(dimethylamino)-2-oxoethyl)-N-((3-methoxypyridin-2-yl)methyl)-3-methyl-5-oxo-2,3,4,5-tetrahydrobenzofuro[2,3-f][1,4]oxazepine-3-carboxamide]

Source: patent publication US20250171460A1, “INDUCERS OF KLF2 AND METHODS OF USE THEREOF” (Riparian Pharmaceuticals, Inc., priority 2022, published 2025)
